The source of these data is US7410663B2, “Oil or fat composition” (Kao Corporation, priority 2002, dated 2008).

Molecules are shown by their SMILES.

The target in one data set is T1, PPARγ (Homo sapiens, UniProt P37231).
T1 construct: expressed in transfected cells; host or cells: IEC-6 small intestine epithelial cell line
T1 sequence (P37231 238-503 limits assumed): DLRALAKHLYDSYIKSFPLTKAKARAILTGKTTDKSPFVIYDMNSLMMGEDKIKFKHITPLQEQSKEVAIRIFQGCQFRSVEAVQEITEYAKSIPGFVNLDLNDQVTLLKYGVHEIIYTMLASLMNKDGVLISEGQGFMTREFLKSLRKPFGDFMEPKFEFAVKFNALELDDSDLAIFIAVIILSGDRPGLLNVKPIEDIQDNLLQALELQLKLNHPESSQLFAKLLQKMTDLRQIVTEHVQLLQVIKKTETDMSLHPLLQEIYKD
Put plainly: Test on PPARγ activation (GAL4-PPARγ-LBD luciferase reporter in IEC-6 cells). It is filed as cell-based. Particulars: control set at 100, test substance 500 μM, 24 hours.

Data set [1] can be described thus: Evaluation of gelling properties. It is filed as physicochemical. Details: key: A: The mixture lacks fluidity and is gelled.; B: The mixture has low fluidity and is gelled slightly.; C: The mixture has fluidity and is partially gelled.; D: The mixture has fluidity and is not gelled at all. The note with it: 70:30 (weight/weight) mixture of oil or fat composition and water, visually observed. The source says:
Gelling properties of a 70:30 (weight/weight) mixture of each oil or fat composition and water were visually observed and evaluated based on the below-described criteria. The results are shown in Table 1. • A: The mixture lacks fluidity and is gelled. • B: The mixture has low fluidity and is gelled slightly. • C: The mixture has fluidity and is partially gelled. • D: The mixture has fluidity and is not gelled at all.

Data set [2] in a line: Evaluation of rancid odor (organoleptic). More on the design: key: A: The sample is almost free from a rancid odor and the odor does not cause discomfort.; B: The sample emits a little rancid odor, but the odor causes little discomfort.; C: The sample emits a rancid odor and the odor causes discomfort.; D: The sample emits a severe rancid odor and the odor causes extreme discomfort. The note with it: oil or fat composition:water=70:30, room temperature for 1 week, smelled. Format: physicochemical. The protocol:
Each sample (each oil or fat composition:water=70:30) prepared in Example 3 was allowed to stand at room temperature for 1 week. The sample was smelled and organoleptic evaluation of rancid odor was performed based on the below-described criteria.

Experimental for PPARγ: The small intestine epithelial cell line IEC-6 was inoculated on a 12 well plate and cultured in DMEM (5% FCS) for 24 hours. A plasmid (pGAL4-PPARγ-LBD) expressing the chimeric molecules of a GAL4-DNA binding domain (DBD) and a PPARγ ligand binding domain (LBD) and a reporter plasmid (pREP) containing a GAL4 binding sequence upstream of a firefly luciferase gene were introduced simultaneously by using a transfection reagent (“QIAGEN”; Superfect transfection reagent), each in an amount of 0.5 μg/well. In order to monitor the transfection efficiency, a renilla luciferase gene was incorporated in the pGAL4-PPARγ-LBD at the same time. The culture broth was then replaced with a DMEM (+250 μM BSA) medium containing a test substance (500 μM), followed by incubation for further 24 hours. After washing with PBS, the cells were lysed using dual luciferase assay system (product of Promega Corporation). To the resulting lysate was added a substrate solution containing luciferin, and firefly and renilla luciferase activities were measured by a luminometer. In the above-described manner, the PPARγ activating capacity was evaluated by measuring the transcriptional activity (luciferase activity) of the PPARγ-dependent gene. It is to be noted that the PPARγ-dependent gene transcriptional activity (luciferase activity) was defined as described below. […]

With `CC/C=C\C/C=C\C/C=C\C/C=C\C/C=C\C/C=C\CCC(=O)O` [Oil or Fat Composition 8, Docosahexaenoic acid], the “PPARγ (PPARγ-dependent transcriptional activity, luciferase, relative to control)” value at PPARγ is recorded as 508. For the same compound, in data set [1], the Gelling properties entry was “D”. Further, the Rancid odor entry in data set [2] is recorded as “D”.

For `CC/C=C\C/C=C\C/C=C\C/C=C\C/C=C\CCCC(=O)O` [Oil or Fat Composition 7, Eicosapentaenoic acid], the “PPARγ (PPARγ-dependent transcriptional activity, luciferase, relative to control)” value on PPARγ was found to be 480. Further, the Gelling properties result in data set [1] is reported as “D”. Further, the Rancid odor entry in data set [2] is reported as “D”.
